How the values were obtained:
[1] = system: TMD-8 human activated B cell diffuse large B cell lymphoma cells; assay: TMD-8 survival assay; format: cell-based; conditions: TMD8, TMD-8 cells, 72 h treatment, Cell Titer-Glo
Procedure: BTK inhibitors affect the survival of B-cell lymphomas. TMD-8 human activated B cell diffuse large B cell lymphoma cells were seeded in 96-well plates at a density of 20,000 cells/well in HyClone RPMI supplemented with 10% FBS (Fisher)/1% Penicillin/Streptomycin (HyClone) and incubated at 37° C., 5% CO2. Cells were treated in triplicate with 1,000 nM or 100 nM curves of compounds for 72 h. Cell survival was measured by Cell Titer-Glo Luminescent Assay (Promega). EC50 values (50% proliferation in the presence of compound as compared to vehicle treated controls) were calculated from dose response compound curves using GraphPad Prism Software.

[2] = system: Splenocytes; assay: Splenic cell proliferation assay (anti-IgM stimulated); format: cell-based; conditions: Splenocyte; CD1 mouse splenocytes, 1 h pre-treatment, 2.5 ug/ml anti-IgM F(ab')2 for 72 h, Cell Titer-Glo; read-out: EC50 (inhibition of splenic cell proliferation)
Procedure: Proliferation of splenocytes in response to anti-IgM can be blocked by inhibition of Btk.
Splenocytes were obtained from 6 week old male CD1 mice (Charles River Laboratories Inc.). Mouse spleens were manually disrupted in PBS and filtered using a 70 um cell strainer followed by ammonium chloride red blood cell lysis. Cells were washed, resuspended in Splenocyte Medium (HyClone RPMI supplemented with 10% heat-inactivated FBS, 0.5× non-essential amino acids, 10 mM HEPES, 50 uM beta mercaptoethanol) and incubated at 37° C., 5% CO2 for 2 h to remove adherent cells. Suspension cells were seeded in 96 well plates at 50,000 cells per well and incubated at 37° C., 5% CO2 for 1 h. Splenocytes were pre-treated in triplicate with 10,000 nM curves of Formula 1 compounds for 1 h, followed by stimulation of cell proliferation with 2.5 ug/ml anti-IgM F(ab′)2 (Jackson ImmunoResearch) for 72 h. Cell proliferation was measured by Cell Titer-Glo Luminescent Assay (Promega). EC50 values (50% proliferation in the presence of compound as compared to vehicle treated controls) were calculated from dose response compound curves using GraphPad Prism Software EC50 values are reported in Table 3: […]

[3] = target: T1, human BTK kinase (hBTK) (Homo sapiens, UniProt Q06187); assay: BTK kinase inhibition assay (Kinase Profiler radiometric protein kinase assay, Eurofins); format: biochemical; conditions: radiometric [γ-33P-ATP] assay, 40 minutes at room temperature, 250 μM substrate
T1 construct: purchased Eurofins Pharma Discovery Services UK Limited (contract assay, Kinase Profiler)
T1 sequence (Q06187 whole entry): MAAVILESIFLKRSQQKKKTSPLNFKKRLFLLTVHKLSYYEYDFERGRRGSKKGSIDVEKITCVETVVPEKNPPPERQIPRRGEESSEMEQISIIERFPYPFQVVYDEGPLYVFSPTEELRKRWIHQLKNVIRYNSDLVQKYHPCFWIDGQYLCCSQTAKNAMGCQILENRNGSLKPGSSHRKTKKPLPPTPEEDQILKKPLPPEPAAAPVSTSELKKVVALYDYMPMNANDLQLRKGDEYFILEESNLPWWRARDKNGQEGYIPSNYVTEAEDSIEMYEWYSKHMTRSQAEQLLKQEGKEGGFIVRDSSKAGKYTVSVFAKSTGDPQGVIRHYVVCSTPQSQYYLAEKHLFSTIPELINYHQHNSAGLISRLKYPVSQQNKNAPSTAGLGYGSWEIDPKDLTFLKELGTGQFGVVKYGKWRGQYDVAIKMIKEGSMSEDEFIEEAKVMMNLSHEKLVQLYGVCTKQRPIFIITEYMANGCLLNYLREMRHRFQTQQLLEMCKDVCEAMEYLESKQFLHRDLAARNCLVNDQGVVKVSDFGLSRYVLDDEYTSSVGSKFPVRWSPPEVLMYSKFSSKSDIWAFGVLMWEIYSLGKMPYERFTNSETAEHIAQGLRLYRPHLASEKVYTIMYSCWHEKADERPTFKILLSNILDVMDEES
Procedure: In vitro potency of selected compound was defined against human BTK kinase (hBTK) using Kinase Profiler radiometric protein kinase assays performed at Eurofins Pharma Discovery Services UK Limited.
hBTK kinase is diluted in buffer and all compounds were prepared to 50× final assay concentration in 100% DMSO. This working stock of the compound was added to the assay well as the first component in the reaction, followed by the remaining components as detailed in the assay protocol listed above. The reaction was initiated by the addition of the MgATP mix. The kinase reaction was performed at room temperature for 40 minutes in presence of 250 μM substrate, 10 mM MgAcetate, [γ-33P-ATP] (specific activity approx. 500 cpm/pmol, concentration as required) and variable test article concentrations. The ATP concentrations in the assays were with 15 μM of the apparent. The reaction was stopped by the addition of 3% phosphoric acid solution. 10 μL of the reaction is then spotted onto a P30 filtermat and washed three times for 5 minutes in 75 mM phosphoric acid and once in methanol prior to drying and scintillation counting. In addition positive control wells contain all components of the reaction, except the compound of interest; however, DMSO (at a final concentration of 2%) were included in these wells to control for solvent effects as well as blank wells contain all components of the reaction, with a reference inhibitor replacing the compound of interest. This abolishes kinase activity and establishes the base-line (0% kinase activity remaining).

Row | Compound | IC50 [3] | EC50 [1] | EC50 [2]
1 | Cc1ncc(COc2cc(F)cc(Oc3ccc(-c4nn(C5CCN(C#N)CC5)c5ncnc(N)c45)cc3)c2)cn1 [Compound 33] |  | > 100 nM | 47.3 nM
2 | C=C(F)C(=O)N1CC[C@@H](n2nc(-c3ccc(Oc4cc(F)cc(OCc5cnc(C)nc5)c4)cc3)c3c(N)ncnc32)C1 [Compound 18] | 14 nM | 14.4 nM | 5.8 nM
3 | C#CC(=O)N1CCC[C@@H](n2nc(-c3ccc(Oc4cc(F)cc(OCc5cnc(C)nc5)c4)cc3)c3c(N)ncnc32)C1 [Compound 10] | 8 nM | 75.5 nM | 9.8 nM
4 | Cc1ncc(COc2cc(F)cc(Oc3ccc(-c4nn([C@@H]5CCCN(C(=O)/C=C/CN(C)C)C5)c5ncnc(N)c45)cc3)c2)cn1 [Compound 16] | 7 nM | 12.1 nM | 4.1 nM
5 | C=CS(=O)(=O)N1CC[C@@H](n2nc(-c3ccc(Oc4cc(F)cc(OCc5cnc(C)nc5)c4)cc3)c3c(N)ncnc32)C1 [Compound 19] | 7 nM | 53.3 nM | 13.4 nM
6 | CC#CC(=O)N[C@H]1C[C@@H](n2nc(-c3ccc(Oc4cc(F)cc(OCc5cnc(C)nc5)c4)cc3)c3c(N)ncnc32)C1 [Compound 28] | 13 nM | 8.4 nM | 1.1 nM
7 | Cc1ncc(COc2cc(F)cc(Oc3ccc(-c4nn(C[C@H]5CCCN5C(=O)/C=C/CN(C)C)c5ncnc(N)c45)cc3)c2)cn1 [Compound 9] | 40 nM | 18.7 nM | 6.4 nM
8 | Cc1ncc(COc2cc(F)cc(Oc3ccc(-c4nn([C@@H]5CCCN(C#N)C5)c5ncnc(N)c45)cc3)c2)cn1 [Compound 8] | 11 nM | 13.5 nM | 4.6 nM
9 | C=C(F)C(=O)N1CCC[C@@H]1Cn1nc(-c2ccc(Oc3cc(F)cc(OCc4cnc(C)nc4)c3)cc2)c2c(N)ncnc21 [Compound 6] | 55 nM | 36.1 nM | 11.5 nM
10 | C=C(F)C(=O)N[C@H]1C[C@@H](n2nc(-c3ccc(Oc4cc(F)cc(OCc5cnc(C)nc5)c4)cc3)c3c(N)ncnc32)C1 [Compound 35] |  |  | 1 nM
11 | CC#CC(=O)N(C)[C@H]1C[C@@H](n2nc(-c3ccc(Oc4cc(F)cc(OCc5cnc(C)nc5)c4)cc3)c3c(N)ncnc32)C1 [Compound 32] | 8 nM | 8.5 nM | 1.5 nM

The next lines start with results.

Row | IC50 [3] | Compound | EC50 [1] | EC50 [2]
12 | 129 nM | C/C=C/C(=O)N1CCC[C@@H]1Cn1nc(-c2ccc(Oc3cc(F)cc(OCc4cnc(C)nc4)c3)cc2)c2c(N)ncnc21 [Compound 3] | 45.3 nM | 12.8 nM
13 | 19 nM | CC#CC(=O)N1CC[C@@H](n2nc(-c3ccc(Oc4cc(F)cc(OCc5cnc(C)nc5)c4)cc3)c3c(N)ncnc32)C1 [Compound 17] | 14.5 nM | 6.9 nM
14 | 10 nM | C=CC(=O)N(C)[C@H]1C[C@@H](n2nc(-c3ccc(Oc4cc(F)cc(OCc5cnc(C)nc5)c4)cc3)c3c(N)ncnc32)C1 [Compound 31] | 8.9 nM | 1.4 nM
15 | 25 nM | C=CC(=O)N1CCC[C@@H]1Cn1nc(-c2ccc(Oc3cc(F)cc(OCc4cnc(C)nc4)c3)cc2)c2c(N)ncnc21 [Compound 14] | 13.8 nM | 2.5 nM
16 | 17 nM | C=CC(=O)N1CCC(n2nc(-c3ccc(Oc4cc(F)cc(OCc5cnc(C)nc5)c4)cc3)c3c(N)ncnc32)CC1 [Compound 25] | 19.8 nM | 4.3 nM
17 | 13 nM | C=CS(=O)(=O)N1CCC[C@@H](n2nc(-c3ccc(Oc4cc(F)cc(OCc5cnc(C)nc5)c4)cc3)c3c(N)ncnc32)C1 [Compound 21] | 64.5 nM | 32.9 nM

From patent US20180179210A1, “Inhibitors of the TEC Kinase Enzyme Family” (Pharmascience Inc., priority 2015, published 2018)
